Results taken from patent US7943660B2, “Inhibitors of the LFA-1/ICAM-1 interaction and uses thereof” (Dominion Pharmakine S.L., priority 2005, dated 2011).

| SMILES | melting point |
| --- | --- |
| CC[C@H](C)C(OCc1ccccc1F)[C@H]1[C@H]([N+](=O)[O-])[C@@H](c2cccs2)N[C@@H]1C(=O)NCCC(=O)O (stereo partly drawn) [Compound 6, 3-[(2S,3R,4S,5S)-3-[(2S)-1-(2-Fluorobenzyloxy)-2-methylbutyl]-4-nitro-5-(thiophen-2-yl)pyrrolidine-2-carboxamido]propanoic acid] | 94 to 96 °C |
| CC[C@H](C)C(OCc1ccccc1)[C@H]1[C@H]([N+](=O)[O-])[C@H](c2ccccc2)N[C@@H]1C(=O)NCCC(=O)O (stereo partly drawn) [Compound 1, 3-[(2S,3R,4S,5S)-3-[(2S)-1-(Benzyloxy)-2-methylbutyl]-4-nitro-5-phenylpyrrolidine-2-carboxamido]propanoic acid] | 140 to 141 °C |
| CC[C@H](C)C(OCc1ccccc1F)[C@H]1[C@H]([N+](=O)[O-])[C@H](c2ccccc2)N[C@@H]1C(=O)NCCC(=O)O (stereo partly drawn) [Compound 3, 3-[(2S,3R,4S,5S)-3-[(2S)-1-(2-Fluorobenzyloxy)-2-methylbutyl]-4-nitro-5-phenylpyrrolidine-2-carboxamido]propanoic acid] | 136 to 138 °C |
| CC[C@H](C)C(OCc1ccccc1F)[C@H]1[C@H]([N+](=O)[O-])[C@H](c2ccsc2)N[C@@H]1C(=O)NCCC(=O)O (stereo partly drawn) [Compound 4, 3-[(2S,3R,4S,5S)-3-[(2S)-1-(2-Fluorobenzyloxy)-2-methylbutyl]-4-nitro-5-(thiophen-3-yl)pyrrolidine-2-carboxamido]propanoic acid] | 113 to 114 °C |
| CC(C)C(OCc1ccccc1)[C@H]1[C@H]([N+](=O)[O-])[C@H](c2cccnc2)N[C@@H]1C(=O)NCCC(=O)O (stereo partly drawn) [Compound 8, 3-[(2S,3R,4S,5S)-3-(1-(Benzyloxy)-2-methylpropyl)-4-nitro-5-(pyridin-3-yl)pyrrolidine-2-carboxamido]propanoic acid] | 98 to 100 °C |
| CC[C@H](C)C(OCc1ccccc1)[C@H]1[C@H]([N+](=O)[O-])[C@@H](c2cccs2)N[C@@H]1C(=O)NCCC(=O)O (stereo partly drawn) [Compound 7, 3-[(2S,3R,4S,5S)-3-[(2S)-1-(Benzyloxy)-2-methylbutyl]-4-nitro-5-(thiophen-2-yl)pyrrolidine-2-carboxamido]propanoic acid] | 79 to 80 °C |
| CC(C)C(OCc1ccccc1)[C@H]1[C@H]([N+](=O)[O-])[C@@H](c2ccco2)N[C@@H]1C(=O)NCCC(=O)O (stereo partly drawn) [Compound 9, 3-[(2S,3R,4S,5S)-3-(1-(Benzyloxy)-2-methylpropyl)-5-(furan-2-yl)-4-nitropyrrolidine-2-carboxamido]propanoic acid] | 70 to 72 °C |
| CC[C@H](C)C(OCc1ccccc1)[C@@H]1[C@H]([N+](=O)[O-])[C@H](c2ccccc2)N(C(=O)CN)[C@]1(C)C(=O)NCCCC(=O)O (stereo partly drawn) [Compound 17, 4-[(2S,3R,4S,5S)-1-(2-aminoacetyl)-3-[(2S)-1-(benzyloxy)-2-methylbutyl]-2-methyl-4-nitro-5-phenylpyrrolidine-2-carboxamido]butanoic acid] | 132.7 to 133.6 °C |
| CC[C@H](C)C(OCc1ccccc1)[C@@H]1[C@H]([N+](=O)[O-])[C@H](c2ccccc2)N(C(=O)CN)[C@]1(C)C(=O)NCCC(=O)O (stereo partly drawn) [Compound 16, 3-[(2S,3R,4S,5S)-1-(2-Aminoacetyl)-3-[(2S)-1-(benzyloxy)-2-methylbutyl]-2-methyl-4-nitro-5-phenylpyrrolidine-2-carboxamido]propanoic acid] | 115.9 to 116.2 °C |
| CC[C@H](C)C(OCc1ccccc1)[C@H]1[C@H]([N+](=O)[O-])[C@H](c2ccsc2)N[C@@H]1C(=O)NCCC(=O)O (stereo partly drawn) [Compound 5, 3-[(2S,3R,4S,5S)-3-[(2S)-1-(Benzyloxy)-2-methylbutyl]-4-nitro-5-(thiophen-3-yl)pyrrolidine-2-carboxamido]propanoic acid] | 145 to 146 °C |
